Source: ChEMBL document CHEMBL1155520, “Novel 8a-aza-8a-homoerythromycin--4''-(3-substituted-amino)propionates with broad spectrum antibacterial activity” (2010)
Converted amounts (≈) assume the structure as drawn.

Columns and labels:
Type in all cases: functional
Streptococcus pyogenes [1] = experiment: Antimicrobial activity against inducible macrolide, lincosamide, streptogramin-resistant Streptococcus pyogenes Finland 11
Streptococcus pneumoniae [2] = experiment: Antimicrobial activity against macrolide-resistant Streptococcus pneumoniae Ci137
Staphylococcus aureus = experiment: Antimicrobial activity against macrolide-sensitive Staphylococcus aureus ATCC 13709
Streptococcus pneumoniae [3] = experiment: Antimicrobial activity against inducible macrolide and constitutive lincosamide, streptogramin-resistant Streptococcus pneumoniae 4636
Streptococcus pyogenes [4] = experiment: Antimicrobial activity against macrolide-sensitive Streptococcus pyogenes 3665
Haemophilus influenzae = experiment: Antimicrobial activity against Haemophilus influenzae ATCC 49247
Streptococcus pneumoniae [5] = experiment: Antimicrobial activity against macrolide-sensitive Streptococcus pneumoniae SPO 30

For CC[C@H]1OC(=O)[C@H](C)[C@@H](O[C@H]2C[C@@](C)(OC)[C@@H](OC(=O)CCNCC(=O)Nc3ccc([N+](=O)[O-])cc3)[C@H](C)O2)[C@H](C)[C@@H](O[C@@H]2O[C@H](C)C[C@H](N(C)C)[C@H]2O)[C@](C)(O)C[C@@H](C)NC(=O)[C@H](C)[C@@H](O)[C@]1(C)O, the MIC (Streptococcus pyogenes [1]) was 4 µg/mL (≈ 4.01 µM), the MIC (Streptococcus pneumoniae [2]) was 4 µg/mL (≈ 4.01 µM) and the MIC (Staphylococcus aureus) was 2 µg/mL (≈ 2 µM). The MIC (Streptococcus pneumoniae [3]) was 32 µg/mL (≈ 32.1 µM), the MIC (Streptococcus pyogenes [4]) was less than 0.13 µg/mL and the MIC (Haemophilus influenzae) was 8 µg/mL (≈ 8.01 µM). It also gave an MIC (Streptococcus pneumoniae [5]) of less than 0.13 µg/mL.

For CC[C@H]1OC(=O)[C@H](C)[C@@H](O[C@H]2C[C@@](C)(OC)[C@@H](OC(=O)CCN3CCN(C(=O)c4ccco4)CC3)[C@H](C)O2)[C@H](C)[C@@H](O[C@@H]2O[C@H](C)C[C@H](N(C)C)[C@H]2O)[C@](C)(O)C[C@@H](C)NC(=O)[C@H](C)[C@@H](O)[C@]1(C)O, the MIC (Streptococcus pyogenes [1]) was 8 µg/mL (≈ 8.14 µM), the MIC (Streptococcus pneumoniae [2]) was 2 µg/mL (≈ 2.03 µM) and the MIC (Staphylococcus aureus) was 4 µg/mL (≈ 4.07 µM). It also gave an MIC (Streptococcus pneumoniae [3]) greater than 64 µg/mL, an MIC (Streptococcus pyogenes [4]) of less than 0.13 µg/mL and an MIC (Haemophilus influenzae) of 16 µg/mL (≈ 16.3 µM). The MIC (Streptococcus pneumoniae [5]) was less than 0.13 µg/mL.

CC[C@H]1OC(=O)[C@H](C)[C@@H](O[C@H]2C[C@@](C)(OC)[C@@H](OC(=O)CCNCC(=O)Nc3ccc4ccccc4c3)[C@H](C)O2)[C@H](C)[C@@H](O[C@@H]2O[C@H](C)C[C@H](N(C)C)[C@H]2O)[C@](C)(O)C[C@@H](C)NC(=O)[C@H](C)[C@@H](O)[C@]1(C)O showed an MIC (Streptococcus pyogenes [1]) of 8 µg/mL (≈ 7.97 µM), an MIC (Streptococcus pneumoniae [2]) of 2 µg/mL (≈ 1.99 µM) and an MIC (Staphylococcus aureus) of 4 µg/mL (≈ 3.99 µM). For the same compound, the MIC (Streptococcus pneumoniae [3]) was 32 µg/mL (≈ 31.9 µM), the MIC (Streptococcus pyogenes [4]) was less than 0.13 µg/mL and the MIC (Haemophilus influenzae) was 4 µg/mL (≈ 3.99 µM). For the same compound, the MIC (Streptococcus pneumoniae [5]) was less than 0.13 µg/mL.

For CC[C@H]1OC(=O)[C@H](C)[C@@H](O[C@H]2C[C@@](C)(OC)[C@@H](OC(=O)CCN[C@@H](C)c3ccc([N+](=O)[O-])cc3)[C@H](C)O2)[C@H](C)[C@@H](O[C@@H]2O[C@H](C)C[C@H](N(C)C)[C@H]2O)[C@](C)(O)C[C@@H](C)NC(=O)[C@H](C)[C@@H](O)[C@]1(C)O, the MIC (Streptococcus pyogenes [1]) was 4 µg/mL (≈ 4.13 µM), the MIC (Streptococcus pneumoniae [2]) was 4 µg/mL (≈ 4.13 µM) and the MIC (Staphylococcus aureus) was 4 µg/mL (≈ 4.13 µM). For the same compound, the MIC (Streptococcus pneumoniae [3]) was 16 µg/mL (≈ 16.5 µM), the MIC (Streptococcus pyogenes [4]) was less than 0.13 µg/mL and the MIC (Haemophilus influenzae) was 8 µg/mL (≈ 8.25 µM). It also gave an MIC (Streptococcus pneumoniae [5]) of less than 0.13 µg/mL.

In the case of CC[C@H]1OC(=O)[C@H](C)[C@@H](O[C@H]2C[C@@](C)(OC)[C@@H](OC(=O)CCN[C@H](C)c3ccc([N+](=O)[O-])cc3)[C@H](C)O2)[C@H](C)[C@@H](O[C@@H]2O[C@H](C)C[C@H](N(C)C)[C@H]2O)[C@](C)(O)C[C@@H](C)NC(=O)[C@H](C)[C@@H](O)[C@]1(C)O, the MIC (Streptococcus pyogenes [1]) is reported as 8 µg/mL (≈ 8.25 µM), the MIC (Streptococcus pneumoniae [2]) is reported as 4 µg/mL (≈ 4.13 µM) and the MIC (Staphylococcus aureus) is reported as 4 µg/mL (≈ 4.13 µM). For the same compound, the MIC (Streptococcus pneumoniae [3]) was 32 µg/mL (≈ 33 µM), the MIC (Streptococcus pyogenes [4]) was less than 0.13 µg/mL and the MIC (Haemophilus influenzae) was 4 µg/mL (≈ 4.13 µM). For the same compound, the MIC (Streptococcus pneumoniae [5]) was less than 0.13 µg/mL.

Work on CC[C@H]1OC(=O)[C@H](C)[C@@H](O[C@H]2C[C@@](C)(OC)[C@@H](OC(=O)CCN[C@@H](C)C(=O)Nc3ccc4ccccc4c3)[C@H](C)O2)[C@H](C)[C@@H](O[C@@H]2O[C@H](C)C[C@H](N(C)C)[C@H]2O)[C@](C)(O)C[C@@H](C)NC(=O)[C@H](C)[C@@H](O)[C@]1(C)O yielded an MIC (Streptococcus pyogenes [1]) of 8 µg/mL (≈ 7.86 µM), an MIC (Streptococcus pneumoniae [2]) of 0.5 µg/mL (≈ 0.492 µM) and an MIC (Staphylococcus aureus) of 2 µg/mL (≈ 1.97 µM). For the same compound, the MIC (Streptococcus pneumoniae [3]) was 32 µg/mL (≈ 31.5 µM), the MIC (Streptococcus pyogenes [4]) was less than 0.13 µg/mL and the MIC (Haemophilus influenzae) was 2 µg/mL (≈ 1.97 µM). It also gave an MIC (Streptococcus pneumoniae [5]) of less than 0.13 µg/mL.

Work on CC[C@H]1OC(=O)[C@H](C)[C@@H](O[C@H]2C[C@@](C)(OC)[C@@H](OC(=O)CCN[C@@H](C)C(=O)Nc3ccc([N+](=O)[O-])cc3)[C@H](C)O2)[C@H](C)[C@@H](O[C@@H]2O[C@H](C)C[C@H](N(C)C)[C@H]2O)[C@](C)(O)C[C@@H](C)NC(=O)[C@H](C)[C@@H](O)[C@]1(C)O yielded an MIC (Streptococcus pyogenes [1]) of 4 µg/mL (≈ 3.95 µM), an MIC (Streptococcus pneumoniae [2]) of 2 µg/mL (≈ 1.98 µM) and an MIC (Staphylococcus aureus) of 4 µg/mL (≈ 3.95 µM). It also gave an MIC (Streptococcus pneumoniae [3]) of 32 µg/mL (≈ 31.6 µM), an MIC (Streptococcus pyogenes [4]) of less than 0.13 µg/mL and an MIC (Haemophilus influenzae) of 4 µg/mL (≈ 3.95 µM). It also gave an MIC (Streptococcus pneumoniae [5]) of less than 0.13 µg/mL.

For CC[C@H]1OC(=O)[C@H](C)[C@@H](O[C@H]2C[C@@](C)(OC)[C@@H](OC(=O)CCN3CCN(C(=O)c4ccco4)CC3)[C@H](C)O2)[C@H](C)[C@@H](O[C@@H]2O[C@H](C)C[C@H](N(C)C)[C@H]2O)[C@](C)(OC)C[C@@H](C)NC(=O)[C@H](C)[C@@H](O)[C@]1(C)O, the MIC (Streptococcus pyogenes [1]) was 16 µg/mL (≈ 16 µM), the MIC (Streptococcus pneumoniae [2]) was 2 µg/mL (≈ 2.01 µM) and the MIC (Staphylococcus aureus) was 2 µg/mL (≈ 2.01 µM). The MIC (Streptococcus pneumoniae [3]) was 32 µg/mL (≈ 32.1 µM), the MIC (Streptococcus pyogenes [4]) was less than 0.13 µg/mL and the MIC (Haemophilus influenzae) was 4 µg/mL (≈ 4.01 µM). It also gave an MIC (Streptococcus pneumoniae [5]) of less than 0.13 µg/mL.

CC[C@H]1OC(=O)[C@H](C)[C@@H](O[C@H]2C[C@@](C)(OC)[C@@H](OC(=O)CCNCC(=O)Nc3ccc4ccccc4c3)[C@H](C)O2)[C@H](C)[C@@H](O[C@@H]2O[C@H](C)C[C@H](N(C)C)[C@H]2O)[C@](C)(OC)C[C@@H](C)NC(=O)[C@H](C)[C@@H](O)[C@]1(C)O was tested, and the MIC (Streptococcus pyogenes [1]) was 16 µg/mL (≈ 15.7 µM), the MIC (Streptococcus pneumoniae [2]) was 2 µg/mL (≈ 1.97 µM) and the MIC (Staphylococcus aureus) was 1 µg/mL (≈ 0.983 µM). It also gave an MIC (Streptococcus pneumoniae [3]) of 16 µg/mL (≈ 15.7 µM), an MIC (Streptococcus pyogenes [4]) of less than 0.13 µg/mL and an MIC (Haemophilus influenzae) of 2 µg/mL (≈ 1.97 µM). It also gave an MIC (Streptococcus pneumoniae [5]) of less than 0.13 µg/mL.

Compound CC[C@H]1OC(=O)[C@H](C)[C@@H](O[C@H]2C[C@@](C)(OC)[C@@H](OC(=O)CCNCC(=O)Nc3ccc([N+](=O)[O-])cc3)[C@H](C)O2)[C@H](C)[C@@H](O[C@@H]2O[C@H](C)C[C@H](N(C)C)[C@H]2O)[C@](C)(OC)C[C@@H](C)NC(=O)[C@H](C)[C@@H](O)[C@]1(C)O has an MIC (Streptococcus pyogenes [1]) of 4 µg/mL (≈ 3.95 µM), an MIC (Streptococcus pneumoniae [2]) of 2 µg/mL (≈ 1.98 µM) and an MIC (Staphylococcus aureus) of 1 µg/mL (≈ 0.988 µM). For the same compound, the MIC (Streptococcus pneumoniae [3]) was 16 µg/mL (≈ 15.8 µM), the MIC (Streptococcus pyogenes [4]) was less than 0.13 µg/mL and the MIC (Haemophilus influenzae) was 2 µg/mL (≈ 1.98 µM). For the same compound, the MIC (Streptococcus pneumoniae [5]) was less than 0.13 µg/mL.

With CC[C@H]1OC(=O)[C@H](C)[C@@H](O[C@H]2C[C@@](C)(OC)[C@@H](OC(=O)CCN[C@@H](C)c3ccc([N+](=O)[O-])cc3)[C@H](C)O2)[C@H](C)[C@@H](O[C@@H]2O[C@H](C)C[C@H](N(C)C)[C@H]2O)[C@](C)(OC)C[C@@H](C)NC(=O)[C@H](C)[C@@H](O)[C@]1(C)O the MIC (Streptococcus pyogenes [1]) was 4 µg/mL (≈ 4.07 µM), the MIC (Streptococcus pneumoniae [2]) was 2 µg/mL (≈ 2.03 µM) and the MIC (Staphylococcus aureus) was 2 µg/mL (≈ 2.03 µM). The MIC (Streptococcus pneumoniae [3]) was greater than 32 µg/mL, the MIC (Streptococcus pyogenes [4]) was less than 0.13 µg/mL and the MIC (Haemophilus influenzae) was 32 µg/mL (≈ 32.5 µM). The MIC (Streptococcus pneumoniae [5]) was less than 0.13 µg/mL.

With CC[C@H]1OC(=O)[C@H](C)[C@@H](O[C@H]2C[C@@](C)(OC)[C@@H](OC(=O)CCN[C@H](C)c3ccc([N+](=O)[O-])cc3)[C@H](C)O2)[C@H](C)[C@@H](O[C@@H]2O[C@H](C)C[C@H](N(C)C)[C@H]2O)[C@](C)(OC)C[C@@H](C)NC(=O)[C@H](C)[C@@H](O)[C@]1(C)O the MIC (Streptococcus pyogenes [1]) was 4 µg/mL (≈ 4.07 µM), the MIC (Streptococcus pneumoniae [2]) was 2 µg/mL (≈ 2.03 µM) and the MIC (Staphylococcus aureus) was 1 µg/mL (≈ 1.02 µM). It also gave an MIC (Streptococcus pneumoniae [3]) greater than 32 µg/mL, an MIC (Streptococcus pyogenes [4]) of less than 0.13 µg/mL and an MIC (Haemophilus influenzae) of 32 µg/mL (≈ 32.5 µM). It also gave an MIC (Streptococcus pneumoniae [5]) of less than 0.13 µg/mL.

CC[C@H]1OC(=O)[C@H](C)[C@@H](O[C@H]2C[C@@](C)(OC)[C@@H](OC(=O)CCN[C@@H](C)C(=O)Nc3ccc([N+](=O)[O-])cc3)[C@H](C)O2)[C@H](C)[C@@H](O[C@@H]2O[C@H](C)C[C@H](N(C)C)[C@H]2O)[C@](C)(OC)C[C@@H](C)NC(=O)[C@H](C)[C@@H](O)[C@]1(C)O was tested, and the MIC (Streptococcus pyogenes [1]) was 1 µg/mL (≈ 0.974 µM), the MIC (Streptococcus pneumoniae [2]) was 0.5 µg/mL (≈ 0.487 µM) and the MIC (Staphylococcus aureus) was 0.5 µg/mL (≈ 0.487 µM). For the same compound, the MIC (Streptococcus pneumoniae [3]) was 16 µg/mL (≈ 15.6 µM), the MIC (Streptococcus pyogenes [4]) was less than 0.13 µg/mL and the MIC (Haemophilus influenzae) was 2 µg/mL (≈ 1.95 µM). It also gave an MIC (Streptococcus pneumoniae [5]) of less than 0.13 µg/mL.

In the case of CC[C@H]1OC(=O)[C@H](C)[C@@H](O[C@H]2C[C@@](C)(OC)[C@@H](OC(=O)CCNCCNc3cccc4ccccc34)[C@H](C)O2)[C@H](C)[C@@H](O[C@@H]2O[C@H](C)C[C@H](N(C)C)[C@H]2O)[C@](C)(OC)C[C@@H](C)NC(=O)[C@H](C)[C@@H](O)[C@]1(C)O, the MIC (Streptococcus pyogenes [1]) is reported as 4 µg/mL (≈ 3.99 µM), the MIC (Streptococcus pneumoniae [2]) is reported as 2 µg/mL (≈ 1.99 µM) and the MIC (Staphylococcus aureus) is reported as 1 µg/mL (≈ 0.997 µM). The MIC (Streptococcus pneumoniae [3]) was greater than 32 µg/mL, the MIC (Streptococcus pyogenes [4]) was less than 0.13 µg/mL and the MIC (Streptococcus pneumoniae [5]) was less than 0.13 µg/mL.
